Assay results published in patent US5916566A, “Use of benzoin gum to inhibit P-glycoprotein-mediated resistance of pharmaceutical compounds” (AvMax, Inc., priority 1998, dated 1999).
Where two headings read alike, the source gives them in different places.

Test system: rat cytochrome P4503A
Conditions: for % inhibition (0.0001%): oil ingredient at 0.0001 wt % (Table 2); for % inhibition (0.001%): oil ingredient at 0.001 wt % (Table 2); for % inhibition (0.01%): oil ingredient at 0.01 wt % (Table 2)

| SMILES | % inhibition (0.0001%) [%] | % inhibition (0.001%) [%] | % inhibition (0.01%) [%] | further results |
| --- | --- | --- | --- | --- |
| CC1(C)[C@H]2CC[C@]1(C)[C@H](O)C2 [Borneol-(IS)-endo(-), 1,7,7-Trimethylbicyclo[2.2.1]heptan-2-ol] | 20 | 80 | 100 |  |
| CC1=CC=C(C(C)C)CC1 [Terpinene-α, p-Mentha-1,3-diene] | -6 | 28 |  |  |
| CCOc1cc(C=O)ccc1O [Ethyl Vanillin, 3-Ethoxy-4-hydroxybenzoledhyde] |  |  | 58 |  |
| C/C=C/c1ccc(OC)cc1 [Anethole, trans-, 4-Propenylanisole] |  | 53 | 100 |  |
| CC(C)=CCC/C(C)=C/C=O [Citral] | 44 | 54 | 99 |  |
| CC1(C)C(=O)[C@]2(C)CC[C@H]1C2 [Fenchone-(IR)-(-), 1,3,3-Trimethylbicyclo[2.2.1]heptan-2-one] | 14 | 38 |  |  |
| CC(=O)N1CCN(c2ccc(OCC3COC(Cn4ccnc4)(c4ccc(Cl)cc4Cl)O3)cc2)CC1 (stereo not drawn) [Ketoconazole, reference compound] |  |  |  | % inhibition (reference compound at 0.000001 % (Table 3)): 8%; % inhibition (reference compound at 0.000005 % (Table 3)): 20%; % inhibition (reference compound at 0.00001 % (Table 3)): 42%; % inhibition (reference compound at 0.00005 % (Table 3)): 100% |
| COc1cc(CNC(=O)CCCC/C=C/C(C)C)ccc1O [Capsaicin, trans-8-Methyl-N-vanillyl-6 nonenamide] | 27 | 68 |  |  |
| CCOC(=O)/C=C/c1ccccc1 [Ethyl Cinnamate, trans-] | -13 | -16 |  |  |
| CC(C)=C1CC[C@@H](C)CC1=O [Pulegone-(R)-(+), p-Menth-4-(8)-en-3-one] | -17 | 31 |  |  |
| COC(=O)c1ccccc1O [Methyl Salicylate, Methyl-2-hydroxybenzoate] |  | 12 | 86 |  |
| CC(C)=CCCC(C)CCO (stereo not drawn) [Citronellal-(DL)-(β), 3,7-Dimethyl-6-octen-1-ol] | 41 | 86 | 95 |  |
| C=C(C)[C@@H]1CC=C(C)C(=O)C1 [Carvone-(R)-(-), p-Mentha-6,8-dien-2-one] | 27 | 69 | 100 |  |
| C=C1CC[C@H]2C[C@@H]1C2(C)C [Pinene-(IS)-(-)-β, 6,6-Dimethyl-2-mehylenebicyclo[3.1.1]heptane] | -10 | 60 | 88 |  |
| O=C/C=C/c1ccccc1 [Cinnamic Aldehyde, trans-, 3-Phenylpropenaldehyde] |  | 29.0 | 78 |  |
| CC1=CCC(C(C)(C)O)CC1 (stereo not drawn) [Terpincol-α, p-Menth-1-en-8-ol] | 13.4 | 86 | 100 |  |
| C=CC(=C)CCC=C(C)C [Myrcene-β, 7-Methyl-3-methylene-1,6-octadiene] | 0 | 13 |  |  |

| SMILES | % inhibition (0.0001%) [%] | % inhibition (0.001%) [%] | % inhibition (0.01%) [%] | further results |
| --- | --- | --- | --- | --- |
| C=C1C2CCC(C2)C1(C)C (single isomer, unassigned) [Camphene-(+), 2,2-Dimethyl-3-methylenebicyclo[2.2.1]heptane] | -49 | 12.4 |  |  |
| COC(=O)c1ccccc1N [Methyl Anthranilate, Methyl 2-aminobenzoate] | -7 | 23 |  |  |
| Cc1ccc(C(C)C)cc1O [Carvacrol, 5-isoPropyl-2-methylphenol] | 11 | 93 | 97 |  |
| CC12CCC(CC1=O)C2(C)C (racemic) [Camphor-(±), 1,7,7-Trimethylbicyclo[2.2.1]heptan-2-one] |  | 57 | 87 |  |
| CC1=CCC(O)(C(C)C)CC1 (stereo not drawn) [Terpinen-4-ol, p-Menth-1-en-4-ol] | 3.81 | 80 | 100 |  |
| C=C(C)[C@@H]1CC=C(C)CC1 [Limonene-(S)-(-), p-Mentha-1,8-diene] |  | 30 | 82.3 |  |
| C=CCc1ccc(OC)cc1 [Entragole, 4-Allylanisole] | 7 | 69.2 | 100 |  |
| CC1=CCC2C(C1)C2(C)C (stereo not drawn) [Carene-3-(Δ)] | -26 | 34 |  |  |
| CC(=O)OC/C=C(\C)CCC=C(C)C [Geranyl Acetate, trans-3,7-Dimethyl-2,,6-octadien-1-yl acetate] |  | 51.5 | 73 |  |
| C=C(C)[C@H]1CC=C(C)C(=O)C1 [Carvone-(S)-(+), p-Mentha-6,8-dien-2-one] | 30 | 70.5 |  |  |
| C=CC(C)(O)CCC=C(C)C (racemic) [Linalcol-(±), 3,7-Dimethyl-1,6-octadien-3-ol] | 41 | 72.0 | 85 |  |
| CC12CCC(CC1)C(C)(C)O2 [Eucatyptol, 1,8-Cincole] | 38 | 64 | 88 |  |
| C=CC(C)(CCC=C(C)C)OC(C)=O (stereo not drawn) [Linalyl Acetate, 3,7-Dimethyl-1,6-octadien-3-yl acetate] |  | 55.8 | 100 |  |
| C=C(C)C1CC=C(C)C(O)C1 (single isomer, unassigned) [Carveol-(-), p-Mentha-6,8-dien-2-ol] | 2 | 60 |  |  |
| Cc1ccc(C(C)C)c(O)c1 [Thymol, 2-isoPropyl-5-methylphenol] |  | 56 | 100 |  |
| C=C1CC/C=C(\C)CC[C@@H]2[C@@H]1CC2(C)C [Caryophyllene, trans-(-), β Caryophyllene] | 26 | 85 |  |  |
| C=CCc1ccc(O)c(OC)c1 [Eugenol, 4-Allyl-2-methoxyphenol] | 9.8 | 66 | 100 |  |
